Source: the CheMixHub ionic liquid set
± gives the uncertainty stated by the source.

Assay: xn = mol fraction of the nth substance listed
[1] = 288.15 K, 100 kPa, frequency 0.003 MHz, x2 = 0
[2] = 308.15 K, 100 kPa, frequency 0.003 MHz, x2 = 0

O + CCCCCCCC[n+]1ccc(C)cc1.[Br-]
electrical conductivity [1]: 0.0001 S/m
electrical conductivity [2]: 0.00022 S/m

CC1COC(=O)O1 (stereo unspecified) + CCCCCCCCn1cc[n+](C)c1.F[B-](F)(F)F
viscosity (323.15 K, 99.7 kPa, x1 = 1): 1.77 ± 0.25 mPa·s

CCCCCCCCCC[n+]1ccn(C)c1.F[B-](F)(F)F + CCCCCCCCn1cc[n+](C)c1.[Br-] + O
electrical conductivity (298.15 K, 101 kPa, x2 = 0.0007563, x1 = 0.0001261): 0.4 ± 0.01 S/m
electrical conductivity (298.15 K, 101 kPa, x2 = 0.001655, x1 = 0.0002882): 0.71 ± 0.02 S/m
electrical conductivity (298.15 K, 101 kPa, x2 = 0.00196, x1 = 0.0003423): 0.81 ± 0.02 S/m
electrical conductivity (298.15 K, 101 kPa, x2 = 0.002283, x1 = 0.0003963): 0.87 ± 0.02 S/m
electrical conductivity (298.15 K, 101 kPa, x2 = 0.002552, x1 = 0.0004503): 0.94 ± 0.02 S/m
electrical conductivity (298.15 K, 101 kPa, x2 = 0.002857, x1 = 0.0005043): 0.99 ± 0.02 S/m
electrical conductivity (298.15 K, 101 kPa, x2 = 0.003126, x1 = 0.0005583): 1.04 ± 0.02 S/m
electrical conductivity (298.15 K, 101 kPa, x2 = 0.003341, x1 = 0.0005943): 1.09 ± 0.02 S/m
electrical conductivity (298.15 K, 101 kPa, x2 = 0.003645, x1 = 0.0006483): 1.14 ± 0.02 S/m
electrical conductivity (298.15 K, 101 kPa, x2 = 0.003877, x1 = 0.0006843): 1.18 ± 0.02 S/m
electrical conductivity (298.15 K, 101 kPa, x2 = 0.004253, x1 = 0.0007563): 1.23 ± 0.03 S/m
electrical conductivity (298.15 K, 101 kPa, x2 = 0.004574, x1 = 0.0008102): 1.28 ± 0.03 S/m
electrical conductivity (298.15 K, 101 kPa, x2 = 0.004788, x1 = 0.0008462): 1.31 ± 0.03 S/m
electrical conductivity (298.15 K, 101 kPa, x2 = 0.005092, x1 = 0.0009002): 1.35 ± 0.03 S/m
electrical conductivity (298.15 K, 101 kPa, x2 = 0.005359, x1 = 0.0009541): 1.4 ± 0.03 S/m
electrical conductivity (298.15 K, 101 kPa, x2 = 0.005626, x1 = 0.001008): 1.43 ± 0.03 S/m

CCC[N+]1(C)CCCC1.O=S(=O)([N-]S(=O)(=O)C(F)(F)F)C(F)(F)F + CCCCCC[N+]1(C)CCCC1.O=S(=O)([N-]S(=O)(=O)C(F)(F)F)C(F)(F)F
electrical conductivity (353.15 K, 101 kPa, x2 = 0): 1.76 ± 0.18 S/m
viscosity (353.15 K, 101 kPa, x2 = 0): 11.6 ± 1.2 mPa·s

O + CCCCCC[n+]1ccc(C)cc1.[Br-]
electrical conductivity [1]: 0.0001 S/m
electrical conductivity [2]: 0.00022 S/m

CCCC[n+]1ccn(C)c1.F[B-](F)(F)F + CCCCCC[n+]1ccn(C)c1.F[B-](F)(F)F
viscosity (305.15 K, 101 kPa, x1 = 1): 75.1 ± 1.4 mPa·s

CN(CCO)CCO + CCCCCC[n+]1ccn(C)c1.F[B-](F)(F)F
viscosity (303.15 K, 101 kPa, x1 = 1): 57.5 ± 3.5 mPa·s
viscosity (308.15 K, 101 kPa, x1 = 1): 44.2 ± 2.7 mPa·s
viscosity (313.15 K, 101 kPa, x1 = 1): 35 ± 2.1 mPa·s

CC[P+](CC)(CC)COCCOC.c1c[n-]nn1 + CCCCCC[n+]1ccn(C)c1.O=S(=O)([N-]S(=O)(=O)C(F)(F)F)C(F)(F)F
viscosity (278.15 K, 100 kPa, x2 = 0.75): 235 ± 29 mPa·s
viscosity (288.15 K, 100 kPa, x2 = 0.25): 136 ± 17 mPa·s
viscosity (293.15 K, 100 kPa, x2 = 0.25): 103 ± 13 mPa·s
viscosity (298.15 K, 100 kPa, x2 = 0.75): 76 ± 9 mPa·s
viscosity (303.15 K, 100 kPa, x2 = 0.5): 60 ± 7 mPa·s

CN(CCO)CCO + CCCCCC[n+]1ccn(C)c1.O=S(=O)([N-]S(=O)(=O)C(F)(F)F)C(F)(F)F
viscosity (303.15 K, 101 kPa, x1 = 1): 59.8 ± 2.5 mPa·s
viscosity (313.15 K, 101 kPa, x1 = 1): 37.9 ± 2 mPa·s
viscosity (318.15 K, 101 kPa, x1 = 1): 29.8 ± 1.6 mPa·s

CC[n+]1ccn(C)c1.N#C[N-]C#N + CCCCO
viscosity (298.15 K, 100 kPa, x1 = 0.3006): 3.16 ± 0.63 mPa·s
viscosity (303.15 K, 100 kPa, x1 = 0.9012): 8.7 ± 1.8 mPa·s
viscosity (308.15 K, 100 kPa, x1 = 0.3006): 2.29 ± 0.46 mPa·s
viscosity (308.15 K, 100 kPa, x1 = 0.4008): 2.52 ± 0.5 mPa·s
viscosity (308.15 K, 100 kPa, x1 = 0.7012): 4.34 ± 0.87 mPa·s
viscosity (308.15 K, 100 kPa, x1 = 0.8016): 5.5 ± 1.1 mPa·s
viscosity (313.15 K, 100 kPa, x1 = 0.2007): 1.97 ± 0.39 mPa·s
viscosity (313.15 K, 100 kPa, x1 = 0.3006): 2.03 ± 0.41 mPa·s
viscosity (318.15 K, 100 kPa, x1 = 0.6014): 2.39 ± 0.48 mPa·s
viscosity (323.15 K, 100 kPa, x1 = 0.2007): 1.56 ± 0.31 mPa·s
viscosity (323.15 K, 100 kPa, x1 = 0.4008): 1.71 ± 0.34 mPa·s

CCCCCCCCn1cc[n+](C)c1.O=S(=O)([N-]S(=O)(=O)C(F)(F)F)C(F)(F)F + CCCCOC(C)=O
electrical conductivity (298.15 K, 100 kPa, x2 = 0): 0.131 ± 0.0026 S/m
viscosity (298.15 K, 100 kPa, x2 = 0): 90.3 ± 4.8 mPa·s
electrical conductivity (298.15 K, 100 kPa, x2 = 0.2414): 0.194 ± 0.004 S/m
viscosity (298.15 K, 100 kPa, x2 = 0.7054): 6.46 ± 0.27 mPa·s
electrical conductivity (298.15 K, 100 kPa, x2 = 0.8427): 0.361 ± 0.007 S/m
